Laboratory results published in patent US20250152559A1, “METHODS FOR TREATING MYC-AMPLIFIED CANCER” (The Governing Council of the University of Toronto, priority 2023, published 2025).

System: SU_MB002 cells
Experiment: Mass spectrometry-based metabolomics and lipidomics of treated cells
Assay type: cell-based, human
Experimental: For metabolome and lipidome profiling, ˜10^6 cells and tissues were washed with PBS prior to collection and immediately flash frozen. For metabolite extraction, 1 mL of cold acetonitrile/methanol/water (2:2:1; v:v:v) was added to the cell pellets followed by 3 cycles of freezing in liquid N2 for 1 min, followed by 15 min of thawing in a sonicating ice/water bath. This was followed by incubation at −20° C. and centrifugation at 16,000×g for 15 min at 4° C. […] to fully precipitate protein. Supernatants were transferred to another tube and dried in a vacuum concentrator. For lipid extraction, cells were resuspended in 30 μL of water, followed by three cycles of freeze/thawing and sonication. To this, 225 μL of methanol was added, followed by brief vortexing and addition of 750 μL of methyl tert-butyl ether (MTBE). Samples were incubated at room temperature for 1 hr with gentle shaking. To induce phase-separation, 188 μL of water was added, samples were vortexed for 20 s and centrifuged for 5 min at 16,000×g. The upper and lower phases were collected and transferred to another tube and dried down in a vacuum concentrator. The dry metabolome and lipidome extracts were stored at −80° C. prior to analysis by liquid chromatography-mass spectrometry (LC-MS). Metabolite extracts were reconstituted in LC-MS grade water/acetonitrile (50:50; v:v), vortexed for 1 min, sonicated for 15 min, and centrifuged at 16,000×g and 4° C. for 15 min to remove insoluble debris. The lipidome extracts were reconstituted in acetonitrile/2-propanol (50:50; v:v), vortexed for 1 min, sonicated for 15 min, and centrifuged at 16,000×g and 10° C. for 15 min to remove insoluble debris.
The LC-MS metabolomics and lipidomics analyses of the 3 NSC and 3 MB cell lines and tissues were performed on a UPLC-MS system consisting of an Orbitrap IQ-X Tribrid coupled to a Horizon Vanquish UPLC system (Thermo Fisher Scientific). The lipidomics analysis was conducted in positive-ion mode with a spray voltage of 3.5 kV while the metabolomics analysis was conducted in negative-ion mode with a spray voltage of −2.5 kV. The following source conditions were identical in both analyses and were set as follows: Sheath gas flow rate, 50 arbitrary units; Aux. gas flow rate, 10 arbitrary units; Sweep gas flow rate, 1 arbitrary unit; Ion transfer tube temp., 300° C.; Vaporizer temp., 350° C. The following acquisition parameters were used for MS1 analysis in both methods: resolution, 120,000, AGC target, 4e5. The maximum IT was set at […] for the lipidomics analysis and 200 ms for the metabolomics analysis. Data-dependent MS/MS parameters for the lipidomics analyses: resolution, 30,000; AGC target, 7.5e4; maximum IT, Dynamic (54 ms); time between Master Scans, 0.6 s; isolation window, 1.0 m/z; NCE/stepped nce, 20, 30, 40; intensity threshold, 5e4; exclude isotopes, on; dynamic exclusion, 3.0 s. Data-dependent MS/MS parameters for the metabolomics analyses: resolution. 15,000; AGC target, 7.5e4; maximum IT, Dynamic (22 ms); time between Master Scans, 0.6 s; isolation window, 1.0 m/z; NCE/stepped nce, 20, 30, 40, 50; intensity threshold, 5e4; exclude isotopes, on; dynamic exclusion, 5.0 s. To increase the total number of MS/MS spectra in the lipidomics analysis, five runs with iterative MS/MS exclusions were performed using the AcquireX function in Xcalibur (Thermo Fisher Scientific). In the metabolomics analysis, three runs with iterative MS/MS exclusions were performed using the AcquireX function. For the lipidomics analysis, chromatographic separation was achieved using a Waters Acquity UPLC CSH C18 (100 mm×2.1 mm i.d.; 1.7 μm) column injecting 2 μL. […] The column was equilibrated for 2 min at 15% B. The flow rate was set to 250 μL/min. The column temperature was maintained at 65° C. For the metabolomics analysis, chromatographic separation was achieved using a SeQuant ZIC-PHILIC (150 mm×2.1 mm i.d.; 5 μm) column injecting 2 μL. […]

[1] = SU_MB002 cells treated with BAY (IC90)
[2] = SU_MB002 cells, BAY (IC90) vs vehicle

CCn1c(CO)nn(-c2cc(O[C@@H](C)C(F)(F)F)c(C(=O)Nc3c(F)cccc3Cl)cc2F)c1=O [BAY2402234]
2-Aminoadipic acid normalized peak intensity, BAY average [1]: 26487 | Argininosuccinic acid normalized peak intensity, BAY average [1]: 114194 | Asparagine normalized peak intensity, BAY average [1]: 172639.25 | Aspartic Acid normalized peak intensity, BAY average [1]: 214198 | CDP normalized peak intensity, BAY average [1]: 5476872.25 | CTP normalized peak intensity, BAY average [1]: 810207.75 | Citramalate normalized peak intensity, BAY average [1]: 4459.5 | Citrate normalized peak intensity, BAY average [1]: 76953 | Creatine phosphate normalized peak intensity, BAY average [1]: 619707.25 | Cystathionine normalized peak intensity, BAY average [1]: 3636 | Dihydroorotic Acid normalized peak intensity, BAY average [1]: 462202 | Gluconic acid normalized peak intensity, BAY average [1]: 1081576.5 | Glutamate normalized peak intensity, BAY average [1]: 26227101.8 | Glyceraldehyde-3-phosphate normalized peak intensity, BAY average [1]: 78313.3333 | Hydroxyglutaric acid normalized peak intensity, BAY average [1]: 37974496.3 | Inositol normalized peak intensity, BAY average [1]: 40859409.5 | N-Acetyl glucosamine monophosphate normalized peak intensity, BAY average [1]: 8697678.5 | N-Acetylglutamic Acid normalized peak intensity, BAY average [1]: 189382 | N-Carbamoyl Aspartic Acid normalized peak intensity, BAY average [1]: 31547.3333 | PE O-32:1 normalized peak intensity, BAY average [1]: 2472183.74 | PE O-32:2 normalized peak intensity, BAY average [1]: 11446617.4 | PE O-34:1 normalized peak intensity, BAY average [1]: 3839410.03 | PE O-34:2 normalized peak intensity, BAY average [1]: 92503648 | PE O-36:1 normalized peak intensity, BAY average [1]: 531398.036 | PE O-36:2 normalized peak intensity, BAY average [1]: 102597837 | PE O-36:4 normalized peak intensity, BAY average [1]: 258977958 | PE O-38:4 normalized peak intensity, BAY average [1]: 210123122 | PE O-40:2 normalized peak intensity, BAY average [1]: 10612336 | PE O-40:4 normalized peak intensity, BAY average [1]: 226507622 | PE O-42:3 normalized peak intensity, BAY average [1]: 911901.571 | PE O-42:4 normalized peak intensity, BAY average [1]: 13670542.5 | PE O-42:5 normalized peak intensity, BAY average [1]: 14681375.2 | Proline normalized peak intensity, BAY average [1]: 129729612 | Saccharopine normalized peak intensity, BAY average [1]: 11126.3333 | Sarcosine normalized peak intensity, BAY average [1]: 178498.5 | TG(42:0) normalized peak intensity, BAY average [1]: 15967351.9 | TG(44:0) normalized peak intensity, BAY average [1]: 64916660.2 | TG(44:1) normalized peak intensity, BAY average [1]: 72494555.5 | TG(44:2) normalized peak intensity, BAY average [1]: 23582680.7 | TG(46:3) normalized peak intensity, BAY average [1]: 35191113.7 | TG(48:0) normalized peak intensity, BAY average [1]: 234715455 | TG(48:1) normalized peak intensity, BAY average [1]: 2421262.9 | TG(48:3) normalized peak intensity, BAY average [1]: 16895583.2 | TG(48:4) normalized peak intensity, BAY average [1]: 33300539.1 | TG(48:5) normalized peak intensity, BAY average [1]: 2707280.56 | TG(50:0) normalized peak intensity, BAY average [1]: 235218307 | TG(50:2) normalized peak intensity, BAY average [1]: 1182402177 | TG(50:3) normalized peak intensity, BAY average [1]: 595402718 | TG(52:1) normalized peak intensity, BAY average [1]: 649526618 | TG(52:5) normalized peak intensity, BAY average [1]: 9440406.47 | TG(54:1) normalized peak intensity, BAY average [1]: 104051454 | TG(54:6) normalized peak intensity, BAY average [1]: 36773026.8 | TG(56:7) normalized peak intensity, BAY average [1]: 13481295.5 | UDP normalized peak intensity, BAY average [1]: 964954.5 | UDP-Glucose normalized peak intensity, BAY average [1]: 609888.333 | UTP normalized peak intensity, BAY average [1]: 215065 | Uridine normalized peak intensity, BAY average [1]: 26154.5 | Xanthosine normalized peak intensity, BAY average [1]: 617698.75 | alpha-Ketoglutaric acid normalized peak intensity, BAY average [1]: 112368 | dCTP normalized peak intensity, BAY average [1]: 109835 | dTDP normalized peak intensity, BAY average [1]: 13149248 | 2-Aminoadipic acid Log2 Fold Change: (BAY)/(DMSO) [2]: −1.831 | Argininosuccinic acid Log2 Fold Change: (BAY)/(DMSO) [2]: 0.9374 | Asparagine Log2 Fold Change: (BAY)/(DMSO) [2]: −2.552 | Aspartic Acid Log2 Fold Change: (BAY)/(DMSO) [2]: 0.6679 | CDP Log2 Fold Change: (BAY)/(DMSO) [2]: −1.056 | CTP Log2 Fold Change: (BAY)/(DMSO) [2]: −1.688 | Citramalate Log2 Fold Change: (BAY)/(DMSO) [2]: −1.15 | Citrate Log2 Fold Change: (BAY)/(DMSO) [2]: −2.924 | Creatine phosphate Log2 Fold Change: (BAY)/(DMSO) [2]: −0.8039 | Cystathionine Log2 Fold Change: (BAY)/(DMSO) [2]: −1.709 | Dihydroorotic Acid Log2 Fold Change: (BAY)/(DMSO) [2]: −2.147 | Gluconic acid Log2 Fold Change: (BAY)/(DMSO) [2]: 2.808 | Glutamate Log2 Fold Change: (BAY)/(DMSO) [2]: 0.5525 | Glyceraldehyde-3-phosphate Log2 Fold Change: (BAY)/(DMSO) [2]: −1.224 | Hydroxyglutaric acid Log2 Fold Change: (BAY)/(DMSO) [2]: 7.211 | Inositol Log2 Fold Change: (BAY)/(DMSO) [2]: −0.7576 | N-Acetyl glucosamine monophosphate Log2 Fold Change: (BAY)/(DMSO) [2]: −0.5317 | N-Acetylglutamic Acid Log2 Fold Change: (BAY)/(DMSO) [2]: 1.218 | N-Carbamoyl Aspartic Acid Log2 Fold Change: (BAY)/(DMSO) [2]: −2.853 | PE O-32:1 Log2 Fold Change: (BAY)/(DMSO) [2]: 1.371 | PE O-32:2 Log2 Fold Change: (BAY)/(DMSO) [2]: 1.59 | PE O-34:1 Log2 Fold Change: (BAY)/(DMSO) [2]: 0.7945 | PE O-34:2 Log2 Fold Change: (BAY)/(DMSO) [2]: 1.319 | PE O-36:1 Log2 Fold Change: (BAY)/(DMSO) [2]: 0.9815 | PE O-36:2 Log2 Fold Change: (BAY)/(DMSO) [2]: 0.7435 | PE O-36:4 Log2 Fold Change: (BAY)/(DMSO) [2]: 0.9655 | PE O-38:4 Log2 Fold Change: (BAY)/(DMSO) [2]: 0.6388 | PE O-40:2 Log2 Fold Change: (BAY)/(DMSO) [2]: 0.4723 | PE O-40:4 Log2 Fold Change: (BAY)/(DMSO) [2]: 0.2968 | PE O-42:3 Log2 Fold Change: (BAY)/(DMSO) [2]: 0.5216 | PE O-42:4 Log2 Fold Change: (BAY)/(DMSO) [2]: 0.6964 | PE O-42:5 Log2 Fold Change: (BAY)/(DMSO) [2]: 0.2828 | Proline Log2 Fold Change: (BAY)/(DMSO) [2]: 11.27 | Saccharopine Log2 Fold Change: (BAY)/(DMSO) [2]: −1.712 | Sarcosine Log2 Fold Change: (BAY)/(DMSO) [2]: −0.4764 | TG(42:0) Log2 Fold Change: (BAY)/(DMSO) [2]: 2.859 | TG(44:0) Log2 Fold Change: (BAY)/(DMSO) [2]: 2.947 | TG(44:1) Log2 Fold Change: (BAY)/(DMSO) [2]: 3.568 | TG(44:2) Log2 Fold Change: (BAY)/(DMSO) [2]: 4.285 | TG(46:3) Log2 Fold Change: (BAY)/(DMSO) [2]: 4.265 | TG(48:0) Log2 Fold Change: (BAY)/(DMSO) [2]: 1.816 | TG(48:1) Log2 Fold Change: (BAY)/(DMSO) [2]: 2.541 | TG(48:3) Log2 Fold Change: (BAY)/(DMSO) [2]: 3.131 | TG(48:4) Log2 Fold Change: (BAY)/(DMSO) [2]: 3.96 | TG(48:5) Log2 Fold Change: (BAY)/(DMSO) [2]: 5.389 | TG(50:0) Log2 Fold Change: (BAY)/(DMSO) [2]: 1.574 | TG(50:2) Log2 Fold Change: (BAY)/(DMSO) [2]: 1.881 | TG(50:3) Log2 Fold Change: (BAY)/(DMSO) [2]: 2.346 | TG(52:1) Log2 Fold Change: (BAY)/(DMSO) [2]: 1.065 | TG(52:5) Log2 Fold Change: (BAY)/(DMSO) [2]: 2.418 | TG(54:1) Log2 Fold Change: (BAY)/(DMSO) [2]: 0.738 | TG(54:6) Log2 Fold Change: (BAY)/(DMSO) [2]: 1.79 | TG(56:7) Log2 Fold Change: (BAY)/(DMSO) [2]: 1.418 | UDP Log2 Fold Change: (BAY)/(DMSO) [2]: −3.019 | UDP-Glucose Log2 Fold Change: (BAY)/(DMSO) [2]: −2.77 | UTP Log2 Fold Change: (BAY)/(DMSO) [2]: −3.375 | Uridine Log2 Fold Change: (BAY)/(DMSO) [2]: −4.037 | Xanthosine Log2 Fold Change: (BAY)/(DMSO) [2]: 3.486 | alpha-Ketoglutaric acid Log2 Fold Change: (BAY)/(DMSO) [2]: −1.687 | dCTP Log2 Fold Change: (BAY)/(DMSO) [2]: 2.27 | dTDP Log2 Fold Change: (BAY)/(DMSO) [2]: 1.896
